Measured values published in patent publication US20140221361A1, “C-19 MODIFIED TRITERPENOIDS WITH HIV MATURATION INHIBITORY ACTIVITY” (priority 2013, published 2014).

System: recombinant NL4-3 virus (Renilla luciferase in nef, Gag P373S)
Experiment: HIV cell culture assay (luciferase reporter, MT-2 cells)
Type: cell-based, HIV-1
Conditions: MT-2 cells infected for 4-5 days with NLRluc recombinants; luciferase activity; serial dilutions of inhibitor
Method in brief: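 MT-2 cells infected with recombinant NL4-3 carrying Renilla luciferase in place of part of nef and Gag P373S, virus made by 293T transfection. Infection ran 4-5 days with serial inhibitor dilutions. Antiviral activity read as luciferase activity (Dual Luciferase reagents mixed with lysis buffer).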

Compound	EC50 [nM]
CC(O)(CO)[C@@H]1CC[C@]2(NCCN3CCS(=O)(=O)CC3)CC[C@]3(C)[C@H](CC[C@@H]4[C@@]5(C)CC=C(c6ccc(C(=O)O)cc6)C(C)(C)[C@@H]5CC[C@]43C)[C@@H]12 (single isomer, unassigned) [Example B9]	2.15
CC([C@@H]1CC[C@]2(NCCN3CCS(=O)(=O)CC3)CC[C@]3(C)[C@H](CC[C@@H]4[C@@]5(C)CC=C(c6ccc(C(=O)O)cc6)C(C)(C)[C@@H]5CC[C@]43C)[C@@H]12)N(C)C (single isomer, unassigned) [Example B39]	4.33
CC(CO)[C@@H]1CC[C@]2(NCCN3CCS(=O)(=O)CC3)CC[C@]3(C)[C@H](CC[C@@H]4[C@@]5(C)CC=C(c6ccc(C(=O)O)cc6)C(C)(C)[C@@H]5CC[C@]43C)[C@@H]12 (single isomer, unassigned) [Example B5]	1.15

Same assay, conditions: Renilla, NL43, MT-2 cells infected for 4-5 days with NLRluc recombinants; luciferase activity; serial dilutions of inhibitor

Compound	EC50 [nM]
CNC(=O)[C@@H]1CC[C@]2(NCCN3CCS(=O)(=O)CC3)CC[C@]3(C)[C@H](CC[C@@H]4[C@@]5(C)CC=C(c6ccc(C(=O)O)cc6)C(C)(C)[C@@H]5CC[C@]43C)[C@@H]12 [Example B28, 4-((1R,3aS,5aR,5bR,7aR,11aS,11bR,13aR,13bS)-3a-((2-(1,1-dioxidothiomorpholino)ethyl)amino)-5a,5b,8,8,11a-pentamethyl-1-(methylcarbamoyl)-2,3,3a,4,5,5a,5b,6,7,7a,8,11,11a,11b,12,13,13a,13b-octadecahydro-1H-cyclopenta[a]chrysen-9-yl)benzoic acid]	110
CC1(C)C(c2ccc(C(=O)O)cc2)=CC[C@]2(C)[C@H]3CC[C@@H]4[C@H]5[C@H](C(=O)CO)CC[C@]5(NCCN5CCS(=O)(=O)CC5)CC[C@@]4(C)[C@]3(C)CC[C@@H]12 [Example B25, 4-((1R,3aS,5aR,5bR,7aR,11aS,11bR,13aR,13bS)-3a-((2-(1,1-dioxidothiomorpholino)ethyl)amino)-1-(2-hydroxyacetyl)-5a,5b,8,8,11a-pentamethyl-2,3,3a,4,5,5a,5b,6,7,7a,8,11,11a,11b,12,13,13a,13b-octadecahydro-1H-cyclopenta[a]chrysen-9-yl)benzoic acid]	110
CNC(C)[C@@H]1CC[C@]2(NCCN3CCS(=O)(=O)CC3)CC[C@]3(C)[C@H](CC[C@@H]4[C@@]5(C)CC=C(c6ccc(C(=O)O)cc6)C(C)(C)[C@@H]5CC[C@]43C)[C@@H]12 (stereo partly drawn) [Example B35, 4-((1R,3aS,5aR,5bR,7aR,11aS,11bR,13aR,13bS)-3a-((2-(1,1-dioxidothiomorpholino)ethyl)amino)-5a,5b,8,8,11a-pentamethyl-1-(1-(methylamino)ethyl)-2,3,3a,4,5,5a,5b,6,7,7a,8,11,11a,11b,12,13,13a,13b-octadecahydro-1H-cyclopenta[a]chrysen-9-yl)benzoic acid]	4.24
CC(CN1CCOCC1)[C@@H]1CC[C@]2(NCCN3CCS(=O)(=O)CC3)CC[C@]3(C)[C@H](CC[C@@H]4[C@@]5(C)CC=C(c6ccc(C(=O)O)cc6)C(C)(C)[C@@H]5CC[C@]43C)[C@@H]12 (single isomer, unassigned) [Example B16]	0.827
CC(CC(=O)O)[C@@H]1CC[C@]2(C(=O)NCCN(C)C)CC[C@]3(C)[C@H](CC[C@@H]4[C@@]5(C)CC[C@H](c6ccc(C(=O)O)cc6)C(C)(C)[C@@H]5CC[C@]43C)[C@@H]12 (single isomer, unassigned) [Example 20]	30
C=C(CN(C)CCN(C)C)[C@@H]1CC[C@]2(C(=O)O)CC[C@]3(C)[C@H](CC[C@@H]4[C@@]5(C)CC=C(c6ccc(C(=O)O)cc6)C(C)(C)[C@@H]5CC[C@]43C)[C@@H]12 [Example 4, (1R,3aS,5aR,5bR,7aR,11aS,11bR,13aR,13bS)-9-(4-carboxyphenyl)-1-(3-((2-(dimethylamino)ethyl)(methyl)amino)prop-1-en-2-yl)-5a,5b,8,8,11a-pentamethyl-2,3,3a,4,5,5a,5b,6,7,7a,8,11,11a,11b,12,13,13a,13b-octadecahydro-1H-cyclopenta[a]chrysene-3a-carboxylic acid]	1.42
CC(C)(O)[C@@H]1CC[C@]2(NCCN3CC4CC3CO4)CC[C@]3(C)[C@H](CC[C@@H]4[C@@]5(C)CC=C(C6=CCC(C(=O)O)CC6)C(C)(C)[C@@H]5CC[C@]43C)[C@@H]12 (stereo partly drawn) [Example 23, 4-((1R,3aS,5aR,5bR,7aR,11aS,11bR,13aR,13bS)-3a-((2-(2-oxa-5-azabicyclo[2.2.1]heptan-5-yl)ethyl)amino)-1-(2-hydroxypropan-2-yl)-5a,5b,8,8,11a-pentamethyl-2,3,3a,4,5,5a,5b,6,7,7a,8,11,11a,11b,12,13,13a,13b-octadecahydro-1H-cyclopenta[a]chrysen-9-yl)cyclohex-3-enecarboxylic acid]	0.779
C=C(CN(C)C(=O)CCC(=O)OC)[C@@H]1CC[C@]2(C(=O)NCCN(C)C)CC[C@]3(C)[C@H](CC[C@@H]4[C@@]5(C)CC=C(c6ccc(C(=O)O)cc6)C(C)(C)[C@@H]5CC[C@]43C)[C@@H]12 [Example 18, 4-((1R,3aS,5aR,5bR,7aR,11aS,11bR,13aR,13bS)-3a-(2-(dimethylamino)ethylcarbamoyl)-1-(3-(4-methoxy-N-methyl-4-oxobutanamido)prop-1-en-2-yl)-5a,5b,8,8,11a-pentamethyl-2,3,3a,4,5,5a,5b,6,7,7a,8,11,11a,11b,12,13,13a,13b-octadecahydro-1H-cyclopenta[a]chrysen-9-yl)benzoic acid]	1.87
CC1(C)C(c2ccc(C(=O)O)cc2)=CC[C@]2(C)[C@H]3CC[C@@H]4[C@H]5[C@H](C(=O)N6CCOCC6)CC[C@]5(NCCN5CCS(=O)(=O)CC5)CC[C@@]4(C)[C@]3(C)CC[C@@H]12 [Example B27, 4-((1R,3aS,5aR,5bR,7aR,11aS,11bR,13aR,13bS)-3a-((2-(1,1-dioxidothiomorpholino)ethyl)amino)-5a,5b,8,8,11a-pentamethyl-1-(morpholine-4-carbonyl)-2,3,3a,4,5,5a,5b,6,7,7a,8,11,11a,11b,12,13,13a,13b-octadecahydro-1H-cyclopenta[a]chrysen-9-yl)benzoic acid]	8.11
CC1([C@@H]2CC[C@]3(NCCN4CCC(S(C)(=O)=O)CC4)CC[C@]4(C)[C@H](CC[C@@H]5[C@@]6(C)CC=C(c7ccc(C(=O)O)cc7)C(C)(C)[C@@H]6CC[C@]54C)[C@@H]23)CC1 [Example B53, 4-((1R,3aS,5aR,5bR,7aR,11aS,11bR,13aR,13bR)-5a,5b,8,8,11a-pentamethyl-1-(1-methylcyclopropyl)-3a-(2-(4-(methylsulfonyl)piperidin-1-yl)ethylamino)-2,3,3a,4,5,5a,5b,6,7,7a,8,11,11a,11b,12,13,13a,13b-octadecahydro-1H-cyclopenta[a]chrysen-9-yl)benzoic acid]	1.03
CC1([C@@H]2CC[C@]3(N)CC[C@]4(C)[C@H](CC[C@@H]5[C@@]6(C)CC[C@H](c7ccc(C(=O)O)cc7)C(C)(C)[C@@H]6CC[C@]54C)[C@@H]23)CC1 [Example B54, 4-((1R,3aS,5aR,5bR,7aS,9S,11aS,11bR,13aR,13bR)-3a-amino-5a,5b,8,8,11a-pentamethyl-1-(1-methylcyclopropyl)icosahydro-1H-cyclopenta[a]chrysen-9-yl)benzoic acid]	0.577
CC1([C@@H]2CC[C@]3(C(=O)O)CC[C@]4(C)[C@H](CC[C@@H]5[C@@]6(C)CC=C(c7ccc(C(=O)O)cc7)C(C)(C)[C@@H]6CC[C@]54C)[C@@H]23)CC1 [Example B48, (1R,3aS,5aR,5bR,7aR,11aS,11bR,13aR,13bR)-9-(4-carboxyphenyl)-5a,5b,8,8,11a-pentamethyl-1-(1-methylcyclopropyl)-2,3,3a,4,5,5a,5b,6,7,7a,8,11,11a,11b,12,13,13a,13b-octadecahydro-1H-cyclopenta[a]chrysene-3a-carboxylic acid]	10
C=C(COCCN1CCOCC1)[C@@H]1CC[C@]2(C(=O)NCCCN3CCCC3=O)CC[C@]3(C)[C@H](CC[C@@H]4[C@@]5(C)CC=C(c6ccc(C(=O)O)cc6)C(C)(C)[C@@H]5CC[C@]43C)[C@@H]12 [Example 15, 4-((1R,3aS,5aR,5bR,7aR,11aS,11bR,13aR,13bS)-5a,5b,8,8,11a-pentamethyl-1-(3-(2-morpholinoethoxy)prop-1-en-2-yl)-3a-(3-(2-oxopyrrolidin-1-yl)propylcarbamoyl)-2,3,3a,4,5,5a,5b,6,7,7a,8,11,11a,11b,12,13,13a,13b-octadecahydro-1H-cyclopenta[a]chrysen-9-yl)benzoic acid]	1.83
CC1(C)C(c2ccc(C(=O)O)cc2)=CC[C@]2(C)[C@H]3CC[C@@H]4[C@H]5[C@H](N)CC[C@]5(NCCN5CCS(=O)(=O)CC5)CC[C@@]4(C)[C@]3(C)CC[C@@H]12 [Example B33, 4-((1R,3aR,5aR,5bR,7aR,11aS,11bR,13aR,13bS)-1-amino-3a-((2-(1,1-dioxidothiomorpholino)ethyl)amino)-5a,5b,8,8,11a-pentamethyl-2,3,3a,4,5,5a,5b,6,7,7a,8,11,11a,11b,12,13,13a,13b-octadecahydro-1H-cyclopenta[a]chrysen-9-yl)benzoic acid]	130
C=C(COCCN1CCOCC1)[C@@H]1CC[C@]2(C(=O)NCCC(=O)O)CC[C@]3(C)[C@H](CC[C@@H]4[C@@]5(C)CC=C(c6ccc(C(=O)O)cc6)C(C)(C)[C@@H]5CC[C@]43C)[C@@H]12 [Example 12, 4-((1R,3aS,5aR,5bR,7aR,11aS,11bR,13aR,13bS)-3a-(2-carboxyethylcarbamoyl)-5a,5b,8,8,11a-pentamethyl-1-(3-(2-morpholinoethoxy)prop-1-en-2-yl)-2,3,3a,4,5,5a,5b,6,7,7a,8,11,11a,11b,12,13,13a,13b-octadecahydro-1H-cyclopenta[a]chrysen-9-yl)benzoic acid]	140
